This is an account of results in patent EP0329225A2, “Acetylenic esters” (MERCK & CO. INC., priority 1988, dated 1989).

A value given as a limit tells only on which side of the number the result lay.

For one assay, the target named is T1, Acetoacetyl-coenzyme A thiolase (Rattus norvegicus, UniProt Q5XI22).
T1 construct: prepared from the livers of Sprague Dawley rats treated in the diet for one week with 0.075% lovastatin to induce the enzyme; from tissue; host or cells: liver of Sprague Dawley rats fed lovastatin
T1 sequence (Q5XI22 whole entry): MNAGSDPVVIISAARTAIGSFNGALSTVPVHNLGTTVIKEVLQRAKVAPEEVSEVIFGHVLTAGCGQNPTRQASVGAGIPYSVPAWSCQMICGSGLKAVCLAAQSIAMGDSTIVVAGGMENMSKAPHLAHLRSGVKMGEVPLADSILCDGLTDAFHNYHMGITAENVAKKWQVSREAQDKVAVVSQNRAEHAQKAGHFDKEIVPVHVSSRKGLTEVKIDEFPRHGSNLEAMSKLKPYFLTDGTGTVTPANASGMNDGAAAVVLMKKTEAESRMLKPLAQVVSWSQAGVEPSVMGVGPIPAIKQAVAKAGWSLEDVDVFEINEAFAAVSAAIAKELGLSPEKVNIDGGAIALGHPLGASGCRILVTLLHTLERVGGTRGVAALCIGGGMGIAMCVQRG
Description: Acetoacetyl-coenzyme A thiolase inhibition (coupled spectrophotometric assay, NADH oxidation at 340 nm). Type of assay: biochemical, Sprague Dawley rats.
Conditions: not given
On the procedure: Acetoacetyl-coenzyme A thiolase was prepared from the livers of Sprague Dawley rats treated in the diet for one week with 0.075% lovastatin to induce the enzyme. Acetoacetyl-coenzyme A thiolase was purified through the DEAE-cellulose step essentially as described by Mehrabian et al., J. Biol. Chem., 261, 16249-16255 (1986), but modified slightly by carrying out the 30-50% ammonium sulfate precipitation of the enzyme and a dialysis before the DEAE-cellulose step. The 0.06 M eluate described by Mahrabian et al. contained the acetoacetyl-coenzyme A thiolase. The isolate was concentrated by ammonium sulfate precipitation, dissolved in the buffer used for elution, and stored at -70°C.
Inhibition of acetoacetyl coenzyme A thiolase was measured by coupling the formation of acetoacetyl-coenzyme A to its subsequent reduction of β-hydroxybutyryl-coenzyme A dehydrogenase to β-hydroxybutyryl-coenzyme A and monitoring the resultant oxidation of NADH with a spectrophotometer set at 340 nm. Mixtures of 0.016 units of β-hydroxybutyryl-coenzyme A dehydrogenase, 16.2 µg of acetoacetyl coenzyme A thiolase, and test quantities of the test compounds dissolved in dimethyl sulfoxide and water to bring to final volume were incubated with 71.4 mM Tris-HCl (pH 7.5). 0.71 mM EDTA, 10.7 mM magnesium chloride, 0.53 mM dithiothreitol, 0.21 mM NADH (total volume of 0.140 ml) until a stable base line was obtained. Reaction was initiated by addition of 10 µl of acetoacetyl-coenzyme A, giving a concentration of 2.85 mM. Reaction was measured at room temperature for a time period necessary to produce a measurable reaction rate. An IC₅₀, the concentration that inhibits 50% of the acetoacetyl-coenzyme A thiolase activity, was determined for each test compound. The IC₅₀'s for representative compounds of this invention are listed in Table I. The IC₅₀ of 5-(1-hydroxy-2,4,6-heptatriynyl)-2-oxo-1,3-dioxolane-4-heptanoic acid has been reported as 1 x 10⁻⁸ M. See U.S. Patent Application Serial No. 07/053,973, filed May 26, 1987.
For the molecule `COC(=O)CCCCCCCCC(O)C#CC#C[Si](C)(C)C` (stereo not drawn) [Ex. 5, 10-Hydroxy-14-(trimethylsilyl)-11,13-tetradecadiynoic acid, methyl ester], the IC50 is greater than 62000 nM.

`COC(=O)CCCCCCCCC(O)C#CC#CC#C[Si](C)(C)C` (stereo not drawn) [Ex. 3, 10-Hydroxy-16-(trimethylsilyl)-11,13,15-hexadecatriynoic acid, methyl ester] registered an IC50 of 17 nM.

Still in this assay, the particulars now being: enzyme from livers of lovastatin-treated rats; room temperature, pH 7.5; read-out: IC₅₀.
For `C#CC#CC#C[C@@H](O)[C@@H](O)[C@@H](O)CCCCCCC(=O)O` [Ex. 1, 8(S),9(S),10(R)-Trihydroxy-11,13,15-hexadecatriynoic acid], the IC50 is 150 nM.

As for `C#CC#CC(O)CCCCCCCCC(=O)OC` (stereo not drawn) [Ex. 6, 10-Hydroxy-11,13-tetradecadiynoic acid, methyl ester], the IC50 turned out to be 26000 nM.

Turning to `C#CC#CC#CC(O)CCCCCCCCC(=O)OC` (stereo not drawn) [Ex. 4, 10-Hydroxy-11,13,15-hexadecatriynoic acid, methyl ester], the IC50 is 24 nM.

On to `C#CC#CC#C[C@@H](O)[C@@H](O)[C@@H](O)CCCCCCC(=O)OC` [Ex. 2, 8(S),9(S),10(R)-Trihydroxy-11,13,15-hexadecatriynoic acid, methyl ester], for which the IC50 was 38000 nM.
